What was measured:
[1] = tested on: guinea pig left ventricle; experiment: Refractory time of electrically stimulated guinea pig left ventricles (organ bath)
Protocol: The left ventricles of guinea pig hearts are electrically stimulated in an organ bath, the amplitude of contraction being recorded. By means of a second stimulus, the time is determined below which the heart muscle no longer reacts with a separately resolvable contraction. This time is defined as the refractory time.
The following Table II contains information concerning the maximum tested compound concentrations, as well as the average prolongation of the refractory time measured at this concentration in comparison with the initial value of, in each case, at least 6 experiments.

[2] = tested on: dogs with coronary ligature; experiment: Coronary ligature on dogs (period of sinus rhythm from ECG); format: in vivo
From the text: Using narcotised dogs, after thoracotomy, a coronary artery (side branch of the R. interventr. post. or of the R. circumflexus) is ligatured (see. A. S. Harris, Circulation, 1, 1318/1950). The heart rhythm disturbances which occur as a result thereof are, on the day following the operation, recorded on the awake animals and treated with the compounds according to the present invention by intragastral and intravenous administration. Procainamide is used as a positive standard. From the ECG, the time is determined in which, after administration of the test compound, a sinus rhythm can be recognized.
The compounds of Examples 1 (Table III), 4 (Table IV) and 10 (Table V) were tested on dogs with a coronary ligature. All the compounds were, in each case, tested on at least 5 animals.

[3] = tested on: Rats with calcium chloride induced arrhythmias; experiment: Calcium chloride induced arrhythmias in narcotised rats (prophylactic i.v. administration); format: in vivo; settings: control 10.9 min.
From the text: By means of the intravenous infusion of a calcium chloride solution, […] induced in narcotised rats which, after termination of the infusion, continue for a certain period of time (modification of the method described by Malinow et al., Arch. Int. Pharmacodyn, 102, 266/1955). This arrhythmic phase is shortened by the prophylactic administration of antiarrhythmic drugs. […] The results of the experiments with calcium chloride induced arrhythmias on rats are summarized in the following Table I. The average period of arrhythmia is calculated from experiments with at least 10 animals.

rabbit eye = experiment: Local anesthetic action on the rabbit eye (corneal reflex); format: in vivo, rabbits; settings: for Period of Action: observation discontinued after 60 minutes
Protocol: The corneal reflex is induced in rabbits using a horse hair which bends with a pressure of about 250 mg (modification of the method described by M. von Frey, Beitrage zur Physiologie des Schmerzsinns, Vehr. d. Kgl. Sachs, Ges. d. Wiss. zu Leipzig, Math.-phys. Kl., 46, 185/1894; Untersuchungen uber die Sinnesfunktionen der menschlichen Haut, Leipzig, 1896). After instillation of local anesthetics into the conjunctival sac of the eye, the number of impacts with the horse hair which result in closure of the eyelid is increased. At intervals of 4 minutes, in each case a maximum of 100 successive impacts are carried out and such an action is taken as being 100%. The period of investigation is at most 60 minutes. The action of the compounds according to the present invention is compared with that of tetracaine and procainamide.
The following Table VII contains the results of the experiments on the rabbit eye. There are also given, in addition to the concentrations of the test solutions which were instilled into the conjunctival sac, the actions of the compounds in % (see description of the method), as well as their period of action. In each case, the observations were discontinued after 60 minutes.

in vivo = settings: mouse, po
Protocol: The compounds according to the present invention are administered intragastrally to male mice (NMRI) with a body weight of from 20 to 25 g. Each dosage group consists of 4 animals. The LD50 values are determined after having observed the animals for 7 days.

[4] = Oryctolagus cuniculus, topical, concentration 0.5 %

With COc1ccc2c(c1)-c1c(ccc(OC)c1O)CC(Cc1ccccc1)N(C)CC2 (single isomer, unassigned; (-)) [Example 1, (-)-6-Benzyl-2,12-dimethoxy-1-hydroxy-7-methyl-5,6;8,9-tetrahydro-7H-dibenz(d,f)azonine] the “average prolongation of the refractory time” value ([1]; 8.0 × 10^-6 g/ml in the bath) was 43 ms, the “average period of eurhythmia” value ([2]; 4 mg/kg i.v.) was 62 min and the “average period of eurhythmia” value ([2]; 10 mg/kg i.g.) was 49 min. For the same molecule, the “average period of eurhythmia” value ([2]; 15 mg/kg i.g.) was 99 min, the “average period of eurhythmia” value ([2]; 20 mg/kg i.g.) was 105 min and the “average period of eurhythmia” value ([2]; 25 mg/kg i.g.) was 198 min. For the same molecule, the “average period of arrhythmia” value ([3]; 2.5 mg/kg I.V.) was 4.0 min, the inhibition in vivo at 0.1 % (rabbit eye; Oryctolagus cuniculus, topical, concentration 0.1 %) was 89% and the inhibition in vivo at 0.5 % (rabbit eye; [4]) was 100%. For the same molecule, the “Period of Action” value (rabbit eye; concentration 0.1 %) was “about 49 Min”, the “Period of Action” value (rabbit eye; concentration 0.5 %) was over 60 min and the LD50 at 168 h (in vivo) was 680 mg/kg.

In the case of CCN(CC)CCNC(=O)c1ccc(N)cc1 [procainamide, reference compound], the “average prolongation of the refractory time” value ([1]; 6.4 × 10^-5 g/ml in the bath) was 7 ms, the “average period of eurhythmia” value ([2]; 10 mg/kg i.v.) was 19 min and the “average period of arrhythmia” value ([3]; 10 mg/kg I.V.) was 7.3 min. For the same molecule, the inhibition in vivo at 0.5 % (rabbit eye; [4]) was 1%, the inhibition in vivo at 2 % (rabbit eye; Oryctolagus cuniculus, topical, concentration 2.0 %) was 1% and the “Period of Action” value (rabbit eye; concentration 0.5 %) was 0 min. The “Period of Action” value (rabbit eye; concentration 2.0 %) was 0 min, the “local anesthetic activity (in words)” value (rabbit eye; versus procainamide and tetracaine) was “inactive” and the LD50 at 168 h (in vivo) was 1200 mg/kg.

Source: US4415495A, “5,6;8,9-Tetrahydro-7H-dibenz(d,f)azonines” (Godecke Aktiengesellschaft, priority 1981, dated 1983)
